Measurements published in patent publication US20260014232A1, “Pharmaceutical Composition of GLP-1 and GIP Receptor Dual Agonist and Use Thereof” (Jiangsu Hengrui Pharmaceuticals Co., Ltd., priority 2021, published 2026).
Starred links: 1 amine or outer side, 2 acyl side, 3 side chain; linkers in the order of their positions; H or OH if unused. Non-standard residues stand in square brackets, D forms with d. Residues, ends and D or L forms follow the SMILES beside them. Groups on a side chain read outwards from the residue. *: point of attachment. C20 diacid = O=C(O)CCCCCCCCCCCCCCCCCCC(=O)*; γGlu = O=C(O)[C@H](CCC(=O)[*:2])N[*:1]; AEEA = NCCOCCOCC(=O)O; Aib = CC(C)(N)C(=O)O

Experiment: Food intake of diet-induced-obesity (DIO) mice
Assay type: in vivo, C57BL/6 mice
Method: High-fat food-induced-obesity male C57BL/6 mice (weighing 35-55 g, aged 10-12 weeks, purchased from Shanghai Jiesijie Laboratory Animal Co., Ltd.) were tested. […] According to the experimental design, the body weight of each mouse was measured and recorded on day 0, day 3, day 6, and so on to day 27, the average body weight of each group of mice was calculated, and body weight change curves were plotted by taking the body weight on the first day as the standard. At the end, the fat and other visceral organs of each part of the mice were taken out and weighed, and the viscera/brain ratio for fat in each part of each mouse was calculated. The effect of the drug on the fat was determined by comparing the change in the viscera/brain ratio for fat of different parts of each group of mice.
The food intake of mice in each group was measured daily during the experiment.

SMILES: CC[C@H](C)[C@H](NC(=O)[C@H](CCCCN)NC(=O)[C@H](CCC(=O)O)NC(=O)[C@H](CCCCNC(=O)COCCOCCNC(=O)COCCOCCNC(=O)CC[C@H](NC(=O)CCCCCCCCCCCCCCCCCCC(=O)O)C(=O)O)NC(=O)[C@H](Cc1ccc(O)cc1)NC(=O)[C@@H](NC(=O)[C@H](CO)NC(=O)[C@H](Cc1ccc(O)cc1)NC(=O)[C@H](CC(=O)O)NC(=O)[C@H](CO)NC(=O)[C@@H](NC(=O)[C@H](Cc1ccccc1)NC(=O)[C@@H](NC(=O)CNC(=O)[C@H](CCC(=O)O)NC(=O)C(C)(C)NC(=O)[C@@H](N)Cc1ccc(O)cc1)[C@@H](C)O)[C@@H](C)O)[C@@H](C)CC)C(=O)N[C@@H](C)C(=O)N[C@@H](C)C(=O)N[C@@H](CCC(N)=O)C(=O)N[C@@H](CCC(=O)O)C(=O)N[C@@H](Cc1ccccc1)C(=O)N[C@H](C(=O)N[C@@H](CC(N)=O)C(=O)N[C@@H](Cc1c[nH]c2ccccc12)C(=O)N[C@@H](CC(C)C)C(=O)N[C@@H](CC(C)C)C(=O)N[C@@H](C)C(=O)NCC(=O)NCC(=O)N1CCC[C@H]1C(=O)N[C@@H](CO)C(=O)N[C@@H](CO)C(=O)NCC(=O)N[C@@H](C)C(=O)N1CCC[C@H]1C(=O)N1CCC[C@H]1C(=O)N1CCC[C@H]1C(=O)N[C@@H](CO)C(N)=O)C(C)C [Compound 18#] (H-Y[Aib]EGTFTSDYSIYK([AEEA-AEEA-γGlu-C20 diacid])EKIAAQEFVNWLLAGGPSSGAPPPS-NH2)
- cumulative food intake 28 days after the administration (3 nmol/kg): 58.2 g
- cumulative food intake within 5 days after the administration (3 nmol/kg): 7.2 g
- daily food intake (3 nmol/kg, day 1, listed as 18 #): 0.6 g
- daily food intake (3 nmol/kg, day 1, listed as 18#): 0.6 g
- daily food intake (3 nmol/kg, day 2): 1.3 g
- daily food intake (3 nmol/kg, day 3): 2 g
- daily food intake (3 nmol/kg, day 4): 1.1 g
- daily food intake (3 nmol/kg, day 5): 2.2 g
- daily food intake (3 nmol/kg, day 6): 2.1 g
- daily food intake (3 nmol/kg, day 7): 1.1 g
- daily food intake (3 nmol/kg, day 8): 1.6 g
- daily food intake (3 nmol/kg, day 9): 2.5 g
- daily food intake (3 nmol/kg, day 10): 1.3 g
- daily food intake (3 nmol/kg, day 11): 2 g
- daily food intake (3 nmol/kg, day 12): 3 g
- daily food intake (3 nmol/kg, day 13): 1.8 g
- daily food intake (3 nmol/kg, day 14): 2.3 g
- daily food intake (3 nmol/kg, day 15): 2.9 g
- daily food intake (3 nmol/kg, day 16): 1.5 g
- daily food intake (3 nmol/kg, day 17): 2.2 g
- daily food intake (3 nmol/kg, day 18): 2.7 g
- daily food intake (3 nmol/kg, day 19): 1.7 g
- daily food intake (3 nmol/kg, day 20): 2.2 g
- daily food intake (3 nmol/kg, day 21): 3.4 g
- daily food intake (3 nmol/kg, day 22): 1.8 g
- daily food intake (3 nmol/kg, day 23): 2.6 g
- daily food intake (3 nmol/kg, day 24): 2.9 g
- daily food intake (3 nmol/kg, day 25): 1.8 g
- daily food intake (3 nmol/kg, day 26): 2.5 g
- daily food intake (3 nmol/kg, day 27): 3.9 g
- daily food intake (3 nmol/kg, day 28): 1.3 g
- cumulative food intake 28 days after the administration (10 nmol/kg): 46.8 g
- cumulative food intake within 5 days after the administration (10 nmol/kg): 3.9 g
- daily food intake (10 nmol/kg, day 1, listed as 18 #): 0.3 g
- daily food intake (10 nmol/kg, day 1, listed as 18#): 0.3 g
- daily food intake (10 nmol/kg, day 2): 0.6 g
- daily food intake (10 nmol/kg, day 3): 1.1 g
- daily food intake (10 nmol/kg, day 4): 0.7 g
- daily food intake (10 nmol/kg, day 5): 1.1 g
- daily food intake (10 nmol/kg, day 6): 1.5 g
- daily food intake (10 nmol/kg, day 7): 0.8 g
- daily food intake (10 nmol/kg, day 8): 1.1 g
- daily food intake (10 nmol/kg, day 9): 2 g
- daily food intake (10 nmol/kg, day 10): 0.9 g
- daily food intake (10 nmol/kg, day 11): 1.8 g
- daily food intake (10 nmol/kg, day 12): 2.4 g
- daily food intake (10 nmol/kg, day 13): 0.9 g
- daily food intake (10 nmol/kg, day 14): 1.7 g
- daily food intake (10 nmol/kg, day 15): 3 g
- daily food intake (10 nmol/kg, day 16): 1.2 g
- daily food intake (10 nmol/kg, day 17): 2.1 g
- daily food intake (10 nmol/kg, day 18): 2.9 g
- daily food intake (10 nmol/kg, day 19): 1.3 g
- daily food intake (10 nmol/kg, day 20): 2 g
- daily food intake (10 nmol/kg, day 21): 3.2 g
- daily food intake (10 nmol/kg, day 22): 1 g
- daily food intake (10 nmol/kg, day 23): 2.3 g
- daily food intake (10 nmol/kg, day 24): 2.5 g
- daily food intake (10 nmol/kg, day 25): 1.6 g
- daily food intake (10 nmol/kg, day 26): 2.2 g
- daily food intake (10 nmol/kg, day 27): 3.6 g
- daily food intake (10 nmol/kg, day 28): 1 g
- cumulative food intake 28 days after the administration (100 nmol/kg): 36.7 g
- cumulative food intake within 5 days after the administration (100 nmol/kg): 1.8 g
- daily food intake (100 nmol/kg, day 1, listed as 18 #): 0.2 g
- daily food intake (100 nmol/kg, day 1, listed as 18#): 0.2 g
- daily food intake (100 nmol/kg, day 2): 0.1 g
- daily food intake (100 nmol/kg, day 3): 0.4 g
- daily food intake (100 nmol/kg, day 4): 0.4 g
- daily food intake (100 nmol/kg, day 5): 0.6 g
- daily food intake (100 nmol/kg, day 6): 0.7 g
- daily food intake (100 nmol/kg, day 7): 0.5 g
- daily food intake (100 nmol/kg, day 8): 0.7 g
- daily food intake (100 nmol/kg, day 9): 0.9 g
- daily food intake (100 nmol/kg, day 10): 0.9 g
- daily food intake (100 nmol/kg, day 11): 1.1 g
- daily food intake (100 nmol/kg, day 12): 2 g
- daily food intake (100 nmol/kg, day 13): 1.3 g
- daily food intake (100 nmol/kg, day 14): 1.7 g
- daily food intake (100 nmol/kg, day 15): 2 g
- daily food intake (100 nmol/kg, day 16): 1 g
- daily food intake (100 nmol/kg, day 17): 1.6 g
- daily food intake (100 nmol/kg, day 18): 2 g
- daily food intake (100 nmol/kg, day 19): 1.4 g
- daily food intake (100 nmol/kg, day 20): 1.8 g
- daily food intake (100 nmol/kg, day 21): 2.4 g
- daily food intake (100 nmol/kg, day 22): 1.4 g
- daily food intake (100 nmol/kg, day 23): 2.1 g
- daily food intake (100 nmol/kg, day 24): 2.3 g
- daily food intake (100 nmol/kg, day 25): 1.5 g
- daily food intake (100 nmol/kg, day 26): 1.6 g
- daily food intake (100 nmol/kg, day 27): 2.8 g
- daily food intake (100 nmol/kg, day 28): 1.2 g
